In article PMC6266398, “Anti-Acanthamoeba Activity of Brominated Sesquiterpenes from Laurencia johnstonii” (Marine Drugs, 2018):
Values after ≈ are worked out from the molar mass of the structure shown. Values joined by “and” are separate entries in the source; they are usually repeats but may differ in a detail not shown here. Equal values may be shown once. Read-outs that look alike come from different tables or passages of the source.

Legend:
[1] = cytotoxicity test, alamarBlue method; type: cell-based; conditions: mouse, 37 °C, read-out: CC50 against murine macrophage J774.A1
Experimental: The murine macrophages J774A.1 (ATCC# TIB-67) cell line was cultured in RPMI 1640 medium supplemented with 10% fetal bovine serum at 37 °C and 5% CO2 atmosphere, was used for the cytotoxicity assays.
The cytotoxicity assay was carried out using the alamarBlue® method as previously described. Firstly, the macrophages were seeded in triplicate on a 96-well microtiter plates with 50 μL from a stock solution of 2 × 10^5 cells/mL. Macrophages were left to adhere to the bottom of the well for 15 min, which was checked using a Leika DMIL inverted microscope (Leika, Wetzlar, Germany). After that, 50 μL of serial dilutions of the molecules were added to the wells. Finally, the alamarBlue Reagent® (Life Technologies, Madrid, Spain) was placed into each well at an amount equal to 10% of the final volume. Then, plates containing alamarBlue® were incubated for 24 h at 37 °C in presence of CO2 at 5%.
(§1) Briefly, the test plates were analyzed, during an interval of time between 24 and 96 h, on an EnSpire® Multimode Plate Reader (Perkin Elmer, Madrid, Spain) using fluorescence, a test wavelength of 570 nm and a reference wavelength of 630 nm. The percentage of the growth inhibition, 50% inhibitory concentration (IC50 or CC50) was calculated by linear regression analysis with 95% confidence limits using Sigma Plot 12.0 statistical analysis software (Systat Software). All experiments were performed three times, and the mean values were also calculated. A paired two-tailed t-test was used for analysis of the data. Values of p < 0.05 were considered significant.

[2] = tested on: Acanthamoeba castellanii Neff; experiment: anti-Acanthamoeba activity, alamarBlue method; type: cell-based; conditions: for IC50: Acanthamoeba castellanii, ATCC30010, 96 h, read-out: IC50 against Acanthamoeba castellanii Neff; for anti-Acanthamoeba activity (in words): Acanthamoeba castellanii Neff
Experimental: The amoeba strain used in this study was the type strain: Acanthamoeba castellanii Neff (ATCC 30010) which was axenically grown in PYG medium (0.75% (w/v) proteose peptone, 0.75% (w/v) yeast extract and 1.5% (w/v) glucose) containing 40 μg/mL of gentamicin (Biochrom AG, Cultek, Granollers, Barcelona, Spain).
To evaluate the biological activity of the fractions and molecules, the anti-Acanthamoeba assays were determined using the alamarBlue® method as previously described. Firstly, Acanthamoeba strain was seeded in triplicate on a 96-well microtiter plates with 50 μL from a stock solution of 10^4 cells/mL. Amoebae were left to adhere to the bottom of the well for 15 min, which was checked using a Leika DMIL inverted microscope (Leika, Wetzlar, Germany). After that, 50 μL of serial dilutions of the molecules were added to the wells (1% DMSO was used to dissolve the highest dose of the compounds with no effects on the parasites). […] Finally, the alamarBlue Reagent® (Life Technologies, Madrid, Spain) was placed into each well at an amount equal to 10% of the final volume. Then, plates containing alamarBlue® were incubated for 96 h at 26 °C with a slight agitation.
as §1

[3] = J774A.1 macrophages (ATCC TIB-67)
[4] = Neff strain (ATCC 30010), alamarBlue, 96 h at 26 °C

SMILES	IC50 [2, 4]	IC50 against Acanthamoeba castellanii Neff [2, 4] [µg/mL]	CC50 at 24 h [1, 3] [µg/mL]	anti-Acanthamoeba activity (in words) [2]	CC50 at 24 h [1] [µg/mL]	IC50 [2]
[H]/N=C(\N/C(=N/[H])NCCCCCCNC(=N)NC(=N)Nc1ccc(Cl)cc1)Nc1ccc(Cl)cc1 [Chlorhexidine, chlorhexidine, reference compound]	1.53 µg/mL and 3.02 µM	–	6.64 ± 0.35 (≈ 13.1 µM)	–	–	–
C[C@@H](c1ncncc1F)[C@](O)(Cn1cncn1)c1ccc(F)cc1F [Voriconazole, voriconazole, reference compound]	0.33 µg/mL and 940 nM	–	2.64 ± 0.27 (≈ 7.56 µM)	–	–	–
C=C1[C@@H](C)CC[C@@]1(C)c1cc(Br)c(C)cc1O [compound 2, isolaurinterol]	> 100 µg/mL	–	7.25 ± 0.7 (≈ 24.6 µM)	inactive	–	–
Cc1c(Br)cc2c(c1Br)O[C@@]1(C)C[C@@H](Br)CC[C@@]21C [compound 7, 3α-Bromojohnstane]	18.8 µg/mL and 41.5 µM	–	62.3 ± 2.59 (≈ 138 µM)	–	–	–
Cc1c(Br)cc2c(c1Br)O[C@@]1(CBr)[C@@H](C)CC[C@@]21C [compound 8, 8,10-Dibromoisoaplysin]	–	–	–	–	70.4 ± 3.25 (≈ 155 µM)	22.8 µg/mL and 50.4 µM
Cc1c(Br)cc2c(c1Br)O[C@@]1(CO)[C@@H](C)CC[C@@]21C [compound 9, 8,10-Dibromoaplysinol]	29.9 µg/mL and 76.7 µM	–	74.9 ± 2.77 (≈ 192 µM)	–	–	–

Second part, led by results:

IC50 [2, 4]	IC50 against Acanthamoeba castellanii Neff [2, 4] [µg/mL]	SMILES	CC50 at 24 h [1, 3] [µg/mL]	anti-Acanthamoeba activity (in words) [2]	CC50 at 24 h [1] [µg/mL]	IC50 [2]
> 100 µg/mL	–	Cc1cc(O)c(C2(C)CCC3CC32C)cc1Br (centres unmarked) [compound 1, laurinterol]	23.6 ± 2.3 (≈ 80.1 µM)	inactive	–	–
> 100 µg/mL	–	Cc1cc2c(cc1Br)[C@]1(C)CC[C@H](C)[C@]1(C)O2 [compound 3, aplysin]	324 ± 12 (≈ 1100 µM)	–	–	–
90.7 µg/mL and 322 µM	90.674 ± 1.529 (≈ 322 µM)	Cc1ccc([C@]2(C)CC[C@@H](Br)C2(C)C)cc1 [compound 4, α-bromocuparane]	33 ± 4.2 (≈ 117 µM)	–	–	–
64.2 µg/mL and 228 µM	64.251 ± 3.492 (≈ 228 µM)	Cc1ccc([C@]2(C)CC[C@H](Br)C2(C)C)cc1 [compound 5, α-isobromocuparane]	85.3 ± 10.9 (≈ 303 µM)	–	–	–
24.6 µg/mL and 65.6 µM	–	Cc1c(Br)cc2c(c1Br)O[C@@]1(C)[C@@H](C)CC[C@@]21C [compound 6, 8-Bromoaplysin]	32.9 ± 3.12 (≈ 87.9 µM)	–	–	–
